Assays:
vCap Cell = assay: vCap cell growth inhibition, CellTiter-Glo, 72 h; assay type: cell-based; details: vCap cells, 72 h culture
How it was run: (§1)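 Cells seeded at 5×10^3/well overnight in RPMI-1640/10% FBS, then exposed to compound (0.5% DMSO final) for 72 h at 37 °C.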

CBP bromodomain = molecular target: T1, CBP bromodomain (Homo sapiens, UniProt Q92793); assay: CBP AlphaLISA assay kit (CBP bromodomain binding to acetylated histone substrate); details: read-out: CBP ALPHA IC50
T1 construct: purchased
T1 sequence (Q92793 1085-1192 limits assumed): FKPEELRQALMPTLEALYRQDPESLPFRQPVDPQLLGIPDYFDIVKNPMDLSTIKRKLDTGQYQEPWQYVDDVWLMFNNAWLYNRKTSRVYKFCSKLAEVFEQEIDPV
Experimental: The biochemical activity of the CBP inhibitors was determined using the CBP AlphaLISA® assay kit. The assay is based on the binding of the CBP bromodomain to the acetylated histone substrate. The compounds were incubated with CBP and the biotinylated substrate for 30 min. Then acceptor beads were added, followed by 15 min of incubation, and donor beads were added, followed by 15 min of incubation. Then the alpha counts were read, the data were analyzed using Prism 7.0, and the IC50 values were calculated. The values are shown as mean f SEM (N=2).

22Rv1 Cell = assay: 22RV1 cell growth inhibition, CellTiter-Glo, 72 h; assay type: cell-based; details: 22RV1 cells, 72 h culture
How it was run: as §1

EP300 = molecular target: T2, EP300 (Homo sapiens, UniProt Q09472); assay: Ep300 AlphaLISA assay kit; assay type: biochemical; details: read-out: EP300 ALPHA IC50
T2 construct: purchased
T2 sequence (Q09472 whole entry): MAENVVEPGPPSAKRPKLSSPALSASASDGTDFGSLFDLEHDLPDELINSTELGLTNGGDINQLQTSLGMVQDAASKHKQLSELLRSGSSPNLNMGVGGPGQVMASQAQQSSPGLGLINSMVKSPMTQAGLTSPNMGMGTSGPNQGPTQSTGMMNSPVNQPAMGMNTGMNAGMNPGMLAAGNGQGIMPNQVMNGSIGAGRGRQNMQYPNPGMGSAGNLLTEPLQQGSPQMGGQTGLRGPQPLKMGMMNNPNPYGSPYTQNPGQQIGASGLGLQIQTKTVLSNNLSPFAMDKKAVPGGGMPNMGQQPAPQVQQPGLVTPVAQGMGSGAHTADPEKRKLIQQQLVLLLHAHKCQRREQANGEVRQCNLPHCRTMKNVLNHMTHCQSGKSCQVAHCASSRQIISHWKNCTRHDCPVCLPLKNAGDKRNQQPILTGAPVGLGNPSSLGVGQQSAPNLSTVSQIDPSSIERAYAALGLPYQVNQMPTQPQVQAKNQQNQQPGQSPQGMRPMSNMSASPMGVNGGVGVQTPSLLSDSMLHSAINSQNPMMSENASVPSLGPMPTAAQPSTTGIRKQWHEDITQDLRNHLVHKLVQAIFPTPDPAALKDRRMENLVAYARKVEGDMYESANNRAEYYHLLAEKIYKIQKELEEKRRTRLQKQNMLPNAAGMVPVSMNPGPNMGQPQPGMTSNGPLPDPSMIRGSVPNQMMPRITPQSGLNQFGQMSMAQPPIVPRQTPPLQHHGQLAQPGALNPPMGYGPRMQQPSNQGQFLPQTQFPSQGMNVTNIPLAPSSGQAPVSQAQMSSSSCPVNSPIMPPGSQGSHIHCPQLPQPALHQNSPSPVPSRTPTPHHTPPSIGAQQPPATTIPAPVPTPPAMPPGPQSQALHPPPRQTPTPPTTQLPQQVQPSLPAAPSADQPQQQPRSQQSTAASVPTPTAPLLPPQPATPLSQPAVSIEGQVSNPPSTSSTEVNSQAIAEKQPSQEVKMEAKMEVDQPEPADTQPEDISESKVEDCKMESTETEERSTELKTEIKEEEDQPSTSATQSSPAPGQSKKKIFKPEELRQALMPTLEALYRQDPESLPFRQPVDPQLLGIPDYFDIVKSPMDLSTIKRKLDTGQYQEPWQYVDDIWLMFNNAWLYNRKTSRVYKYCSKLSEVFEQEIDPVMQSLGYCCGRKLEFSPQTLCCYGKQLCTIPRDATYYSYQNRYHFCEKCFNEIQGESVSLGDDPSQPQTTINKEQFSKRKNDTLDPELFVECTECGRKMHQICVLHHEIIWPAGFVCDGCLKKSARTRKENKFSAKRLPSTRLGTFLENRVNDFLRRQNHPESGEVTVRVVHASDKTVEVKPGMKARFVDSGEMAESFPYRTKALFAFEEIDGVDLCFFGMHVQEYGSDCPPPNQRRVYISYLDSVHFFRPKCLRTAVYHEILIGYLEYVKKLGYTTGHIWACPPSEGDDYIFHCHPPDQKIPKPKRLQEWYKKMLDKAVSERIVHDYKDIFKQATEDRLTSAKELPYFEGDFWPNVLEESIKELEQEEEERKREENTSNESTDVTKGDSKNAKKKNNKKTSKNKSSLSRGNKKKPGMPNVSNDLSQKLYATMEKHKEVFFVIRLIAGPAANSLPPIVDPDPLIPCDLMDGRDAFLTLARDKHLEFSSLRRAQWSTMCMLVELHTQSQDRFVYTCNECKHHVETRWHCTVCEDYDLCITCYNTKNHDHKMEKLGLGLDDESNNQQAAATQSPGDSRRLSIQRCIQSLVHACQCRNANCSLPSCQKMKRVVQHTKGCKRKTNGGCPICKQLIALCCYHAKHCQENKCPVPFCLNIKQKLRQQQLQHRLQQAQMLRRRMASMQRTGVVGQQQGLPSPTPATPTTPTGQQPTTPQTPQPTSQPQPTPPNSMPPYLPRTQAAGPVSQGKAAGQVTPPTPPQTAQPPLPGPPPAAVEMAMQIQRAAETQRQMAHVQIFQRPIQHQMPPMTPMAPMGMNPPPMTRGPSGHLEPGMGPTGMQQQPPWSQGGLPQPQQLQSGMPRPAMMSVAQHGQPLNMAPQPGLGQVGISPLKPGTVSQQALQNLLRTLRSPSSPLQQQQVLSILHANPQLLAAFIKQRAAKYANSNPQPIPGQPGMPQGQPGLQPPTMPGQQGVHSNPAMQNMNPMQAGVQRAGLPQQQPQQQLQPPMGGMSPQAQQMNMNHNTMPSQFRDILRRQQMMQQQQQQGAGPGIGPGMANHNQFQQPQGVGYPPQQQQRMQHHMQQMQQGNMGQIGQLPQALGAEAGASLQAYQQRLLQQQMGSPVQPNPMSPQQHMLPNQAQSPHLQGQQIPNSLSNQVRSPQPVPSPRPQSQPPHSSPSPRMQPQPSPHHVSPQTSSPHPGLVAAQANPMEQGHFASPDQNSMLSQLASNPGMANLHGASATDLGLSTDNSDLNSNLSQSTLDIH
Experimental: The biochemical activity of the EP300 modulators was determined using the Ep300 AlphaLISA® assay kit. The assay is based on the […] of residues in the peptide substrate by enzymatic transfer of acetyl groups from acetyl-CoA to particular lysine. The compounds were incubated with EP300 and then with an antibody combination of an antibody that specifically binds to an acetylated peptide and acceptor beads that bind to an acetylated peptide, followed by streptavidin-labeled donor beads. The alpha counts were read, the data were analyzed using Prism 7.0, and the IC50 values were calculated. The values are shown as mean f SEM (N=2).

IC50 (vCap Cell; Homo sapiens, VCaP, 72 h) [µM] | IC50 (CBP bromodomain) [µM] | IC50 (22Rv1 Cell; Homo sapiens, 22Rv1, 72 h) [µM] | IC50 (EP300) [µM] | IC50 (vCap Cell) [µM] | IC50 (22Rv1 Cell) [µM] | Compound
< 1 | < 0.01 | < 1 | – | – | – | COC1CCC(c2cc3c(c(N4CCCc5cc(-c6cnn(C)c6)c(C(F)F)cc54)c2)CN(C(C)=O)C3)CC1 (stereo not shown) [Compound M001065]
< 1 | < 0.01 | > 1 | < 0.01 | – | – | CC(=O)N1Cc2cc(C3CCOCC3)cc(N3CCCc4cc(-c5cnn(C)c5)c(C(F)F)cc43)c2C1 [Compound M001067]
< 1 | < 0.01 | > 1 | – | – | – | CNC(=O)N1CCc2cc(C3CCN(C(=O)c4ccccc4)CC3)cc(N3CCCc4cc(-c5cnn(C)c5)c(C(F)F)cc43)c2C1 [Compound M001076]
< 1 | > 0.01 | < 1 | – | – | – | CC(=O)N1Cc2cc(C3CCNC(=O)C3)cc(N3CCCc4cc(-c5cnn(C)c5)c(C(F)F)cc43)c2C1 (stereo not shown) [Compound M001126]
< 1 | < 0.01 | < 1 | – | – | – | CC(=O)N1Cc2cc(C3CCC(=O)N(C)C3)cc(N3CCCc4cc(-c5cnn(C)c5)c(C(F)F)cc43)c2C1 (stereo not shown) [Compound M001173]
< 1 | < 0.01 | > 1 | – | – | – | CC(=O)N1Cc2cc(C3CCC(=O)NC3)cc(N3CCCc4cc(-c5cnn(C)c5)c(C(F)F)cc43)c2C1 (stereo not shown) [Compound M001174]
< 1 | < 0.01 | < 1 | – | – | – | CC(=O)N1Cc2cc(C3CCN(CC(C)O)C(=O)C3)cc(N3CCCc4cc(-c5cnn(C)c5)c(C(F)F)cc43)c2C1 (stereo not shown) [Compound M001190]
< 1 | < 0.01 | < 1 | – | – | – | COCCN1CCC(c2cc3c(c(N4CCCc5cc(-c6cnn(C)c6)c(C(F)F)cc54)c2)CN(C(C)=O)C3)CC1=O (stereo not shown) [Compound M001191]
> 1 | < 0.01 | > 1 | < 0.01 | – | – | COC(=O)N1CCc2cccc(N3CCCc4cc(-c5cnn(C)c5)c(C(F)F)cc43)c2C1 [Compound M001202]
> 1 | > 0.01 | > 1 | > 0.01 | – | – | CNC(=O)N1Cc2nc(Cl)nc(N3CCCc4cc(-c5cnn(C)c5)c(C(F)F)cc43)c2C1 [Compound M001242]
> 1 | > 0.01 | > 1 | > 0.01 | – | – | CC(=O)N1Cc2nc(C3CCOCC3)nc(N3CCCc4cc(-c5cnn(C)c5)c(C(F)F)cc43)c2C1 [Compound M001243]
> 1 | < 0.01 | > 1 | < 0.01 | – | – | CNC(=O)N1CCc2nc(C3CCOCC3)nc(N3CCCc4cc(-c5cnn(C)c5)c(C(F)F)cc43)c2C1 [Compound M001245, 4-(7-(Difluoromethyl)-6-(1-methyl-1H-pyrazol-4-yl)-3,4-dihydroquinolin-1(2H)-yl)-N-methyl-2-(tetrahydro-2H-pyran-4-yl)-7,8-dihydropyrido[4,3-d]pyrimidine-6(5H)-carboxamide]
> 1 | – | > 1 | – | – | – | CS[C@H]1CC[C@@H](c2cc3c(c(N4CCCc5cc(-c6cnn(C)c6)c(C(F)F)cc54)c2)CN(C(C)=O)C3)CC1 [Compound M001322]
< 1 | – | > 1 | – | – | – | CC(=O)N1Cc2cc(C3CCC([S+](C)[O-])CC3)cc(N3CCCc4cc(-c5cnn(C)c5)c(C(F)F)cc43)c2C1 (stereo not shown) [Compound M001323]
– | – | – | – | < 1 | > 1 | CSC1CCC(c2cc3c(c(N4CCCc5cc(-c6cnn(C)c6)c(C(F)F)cc54)c2)CN(C(C)=O)C3)CC1 (stereo not shown) [Compound M001324]
– | – | – | – | > 1 | > 1 | CC(=O)N1Cc2cc(C3CCC(S(C)(=N)=O)CC3)cc(N3CCCc4cc(-c5cnn(C)c5)c(C(F)F)cc43)c2C1 (stereo not shown) [Compound M001327]
> 1 | – | > 1 | – | – | – | CC(=O)N1Cc2cc(C3CCC([S@@](C)(=N)=O)CC3)cc(N3CCCc4cc(-c5cnn(C)c5)c(C(F)F)cc43)c2C1 (stereo partly shown) [Compound M001328]
– | – | – | – | > 1 | > 1 | CC(=O)N1Cc2cc(C3CCC([S@@](C)(=N)=O)CC3)cc(N3CCCc4cc(-c5cnn(C)c5)c(C(F)F)cc43)c2C1 (stereo partly shown) [Compound M001329]
> 1 | – | > 1 | – | – | – | CON[C@H]1CC[C@@H](c2cc3c(c(N4CCCc5cc(-c6cnn(C)c6)c(C(F)F)cc54)c2)CN(C(C)=O)C3)CC1 [Compound M001340]
> 1 | – | > 1 | – | – | – | CON[C@H]1CC[C@H](c2cc3c(c(N4CCCc5cc(-c6cnn(C)c6)c(C(F)F)cc54)c2)CN(C(C)=O)C3)CC1 [Compound M001341]
> 1 | < 0.01 | > 1 | < 0.01 | – | – | CNC(=O)N1CCc2c(c(N3CCCc4cc(-c5cnn(C)c5)c(C(F)F)cc43)nn2C2CCOCC2)C1 [GNE-781]

— US20240109868A1, “EP300/CBP MODULATOR, PREPARATION METHOD THEREFOR AND USE THEREOF” (Miracure Biotechnology Limited, priority 2022, published 2024)
